US20150038438A1, “ANTIBACTERIAL COMPOUNDS AND METHODS FOR USE” (PTC THERAPEUTICS, INC., priority 2011, published 2015)
≈ marks a conversion by molar mass, not a printed value. Counter-ions that a name gives are not always drawn. Like-named read-outs stand apart in the source and are kept apart here.

Tests used:
Experiment in all cases: Antibacterial activity, microbroth dilution method (MIC)
[1] = test system: control Gram-negative E. coli 25922 strain; format: cell-based, Escherichia coli; settings: Escherichia coli
Outline: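 Lowest concentration stopping macroscopically visible growth under test conditions, by broth microdilution, defines the MIC (μg/mL).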

[2] = test system: super sensitive Gram-negative Escherichia coli (E. coli) BAS849; format: cell-based; settings: Escherichia coli, read-out: MIC, E. coli BAS849
Outline: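 Read-out: visual absence of growth. The lowest concentration meeting this gives the MIC, expressed in μg/mL, with microbroth dilution as the method.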

[3] = test system: Gram-positive Staphylococcus aureus (S. aureus) 29213; format: cell-based; settings: Staphylococcus aureus, Gram-positive S. aureus 29213
Outline: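 Values are MICs (μg/mL): the smallest drug amount at which macroscopically visible bacterial growth is absent under assay conditions, from a microdilution method in broth.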

[4] = super sensitive Gram-negative E. coli BAS849, microbroth dilution

Structure (SMILES): CN(C)C1CCN(c2ccc3c(c2)NCCc2c-3[nH]c(=O)c(C(=O)O)c2O)C1.Cl (stereo not drawn) [Cpd 95, 9-(3-(dimethylamino)pyrrolidin-1-yl)-4-hydroxy-2-oxo-2,5,6,7-tetrahydro-1H-benzo[b]pyrido[2,3-d]azepine-3-carboxylic acid hydrochloride]
- MIC [1]: 3.5 to 12.5 µg/mL
- MIC [2, 4]: 3.5 to 12.5 µg/mL
- MIC [3]: 12.5 to 150 µg/mL

Structure (SMILES): CN1CCN(Cc2cc3cc4c(cc3n2C)CCCc2c-4[nH]c(=O)c(C(=O)O)c2O)CC1.Cl.Cl [Cpd 42, 4-hydroxy-9-methyl-10-((4-methylpiperazin-1-yl)methyl)-2-oxo-1,2,5,6,7,9-hexahydropyrido[3′,2′:6,7]cyclohepta[1,2-f]indole-3-carboxylic acid dihydrochloride]
- MIC [1]: 3.5 to 12.5 µg/mL
- MIC [2, 4]: < 1 µg/mL
- MIC [3]: 3.5 to 12.5 µg/mL

Structure (SMILES): CNCc1cc2cc3c(cc2n1C)CCc1c-3[nH]c(=O)c(C(=O)O)c1O.Cl [Cpd 20, 4-hydroxy-8-methyl-9-((methylamino)methyl)-2-oxo-2,5,6,8-tetrahydro-1H-indolo[6,5-h]quinoline-3-carboxylic acid hydrochloride]
- MIC [1]: 3.5 to 12.5 µg/mL
- MIC [2, 4]: 1 to 3.5 µg/mL
- MIC [3]: 12.5 to 150 µg/mL

Structure (SMILES): CN(C)c1ccc2c(c1)SCCc1c-2[nH]c(=O)c(C(=O)O)c1O [Cpd 185, 9-(dimethylamino)-4-hydroxy-2-oxo-1,2,5,6-tetrahydrobenzo[2,3]thiepino[4,5-b]pyridine-3-carboxylic acid]
- MIC [1]: 12.5 to 150 µg/mL (≈ 37.6 to 451 µM)
- MIC [2, 4]: < 1 µg/mL
- MIC [3]: 12.5 to 150 µg/mL (≈ 37.6 to 451 µM)

Structure (SMILES): O=C(O)c1c(O)c2c([nH]c1=O)-c1ccc(N3CCCC3)cc1NCC2 [Cpd 94, 4-hydroxy-2-oxo-9-(pyrrolidin-1-yl)-2,5,6,7-tetrahydro-1H-benzo[b]pyrido[2,3-d]azepine-3-carboxylic acid]
- MIC [1]: 1 to 3.5 µg/mL (≈ 2.93 to 10.3 µM)
- MIC [2, 4]: < 1 µg/mL
- MIC [3]: 12.5 to 150 µg/mL (≈ 36.6 to 439 µM)

Structure (SMILES): CCNCc1cc2cc3c(cc2n1C)[C@H](O)[C@H](O)Cc1c-3[nH]c(=O)c(C(=O)O)c1O.Cl (relative stereo) [Cpd 71, (cis)-10-((ethylamino)methyl)-4,6,7-trihydroxy-9-methyl-2-oxo-1,2,5,6,7,9-hexahydropyrido[3′,2′:6,7]cyclohepta[1,2-f]indole-3-carboxylic acid hydrochloride]
- MIC [1]: 12.5 to 150 µg/mL
- MIC [2, 4]: 12.5 to 150 µg/mL
- MIC [3]: 12.5 to 150 µg/mL

Structure (SMILES): Cl.Cn1c(CN2CCC(O)C2)cc2cc3c(cc21)CCCc1c-3[nH]c(=O)c(C(=O)O)c1O (stereo not drawn) [Cpd 51, 4-hydroxy-10-((3-hydroxypyrrolidin-1-yl)methyl)-9-methyl-2-oxo-1,2,5,6,7,9-hexahydropyrido[3′,2′:6,7]cyclohepta[1,2-f]indole-3-carboxylic acid hydrochloride]
- MIC [1]: 1 to 3.5 µg/mL
- MIC [2, 4]: < 1 µg/mL
- MIC [3]: 3.5 to 12.5 µg/mL

Structure (SMILES): CC1Oc2cc(N3CCCC3)ccc2-c2[nH]c(=O)c(C(=O)O)cc21 (stereo not drawn) [Cpd 74, 5-methyl-2-oxo-8-(pyrrolidin-1-yl)-2,5-dihydro-1H-chromeno[4,3-b]pyridine-3-carboxylic acid]
- MIC [1]: 12.5 to 150 µg/mL (≈ 38.3 to 460 µM)
- MIC [2, 4]: 1 to 3.5 µg/mL (≈ 3.06 to 10.7 µM)
- MIC [3]: 12.5 to 150 µg/mL (≈ 38.3 to 460 µM)

Structure (SMILES): CC1COc2cc(N3C[C@@H]4[C@H](C3)[C@H]4N(Cc3ccccc3)Cc3ccccc3)ccc2-c2[nH]c(=O)c(C(=O)O)c(O)c21 (stereo partly drawn) [Cpd 85, 9-((cis,cis)-6-(dibenzylamino)-3-azabicyclo[3.1.0]hexan-3-yl)-4-hydroxy-5-methyl-2-oxo-1,2,5,6-tetrahydrobenzo[2,3]oxepino[4,5-b]pyridine-3-carboxylic acid hydrochloride]
- MIC [1]: 12.5 to 150 µg/mL
- MIC [2, 4]: 12.5 to 150 µg/mL
- MIC [3]: 12.5 to 150 µg/mL

Structure (SMILES): N[C@@H]1[C@H]2CN(c3ccc4c(c3)CCCc3c-4[nH]c(=O)c(C(=O)O)c3O)C[C@@H]12 [Cpd 9, 9-((cis,cis)-6-amino-3-azabicyclo[3.1.0]hexan-3-yl)-4-hydroxy-2-oxo-2,5,6,7-tetrahydro-1H-benzo[6,7]cyclohepta[1,2-b]pyridine-3-carboxylic acid trifluoroacetate]
- MIC [1]: < 1 µg/mL
- MIC [2]: < 1 µg/mL
- MIC [3]: 3.5 to 12.5 µg/mL

Structure (SMILES): Cl.Cn1c(CNC2(C)CC2)cc2cc3c(cc21)CCCc1c-3[nH]c(=O)c(C(=O)O)c1O [Cpd 33, 4-hydroxy-9-methyl-10-(((1-methylcyclopropyl)amino)methyl)-2-oxo-1,2,5,6,7,9-hexahydropyrido[3′,2′:6,7]cyclohepta[1,2-f]indole-3-carboxylic acid hydrochloride]
- MIC [1]: < 1 µg/mL
- MIC [2, 4]: < 1 µg/mL
- MIC [3]: 3.5 to 12.5 µg/mL

Structure (SMILES): CN(C)Cc1cc2cc3c(cc2n1C)OCCc1c-3[nH]c(=O)c(C(=O)O)c1O.Cl [Cpd 173, 10-((dimethylamino)methyl)-4-hydroxy-9-methyl-2-oxo-2,5,6,9-tetrahydro-1H-pyrido[2′,3′:4,5]oxepino[3,2-f]indole-3-carboxylic acid hydrochloride]
- MIC [1]: < 1 µg/mL
- MIC [2, 4]: < 1 µg/mL
- MIC [3]: 12.5 to 150 µg/mL

Structure (SMILES): Cn1ccc2cc3c(cc21)OCCc1c-3[nH]c(=O)c(C(=O)O)c1O [Cpd 87, 4-hydroxy-9-methyl-2-oxo-2,5,6,9-tetrahydro-1H-pyrido[2′,3′:4,5]oxepino[3,2-f]indole-3-carboxylic acid]
- MIC [1]: 3.5 to 12.5 µg/mL (≈ 10.7 to 38.3 µM)
- MIC [2, 4]: < 1 µg/mL
- MIC [3]: 12.5 to 150 µg/mL (≈ 38.3 to 460 µM)

Structure (SMILES): C=CCNCc1cc2cc3c(cc2n1C)CCCc1c-3[nH]c(=O)c(C(=O)O)c1O.Cl [Cpd 153, 10-((allylamino)methyl)-4-hydroxy-9-methyl-2-oxo-1,2,5,6,7,9-hexahydropyrido[3′,2′:6,7]cyclohepta[1,2-f]indole-3-carboxylic acid hydrochloride]
- MIC [1]: < 1 µg/mL
- MIC [2, 4]: < 1 µg/mL
- MIC [3]: 3.5 to 12.5 µg/mL

Structure (SMILES): COc1ccc(CNCc2cc3cc4c(cc3n2C)OCCc2c-4[nH]c(=O)c(C(=O)O)c2O)c(OC)c1.Cl [Cpd 170, 10-(((2,4-dimethoxybenzyl)amino)methyl)-4-hydroxy-9-methyl-2-oxo-2,5,6,9-tetrahydro-1H-pyrido[2′,3′:4,5]oxepino[3,2-f]indole-3-carboxylic acid hydrochloride]
- MIC [1]: 1 to 3.5 µg/mL
- MIC [2, 4]: < 1 µg/mL
- MIC [3]: 1 to 3.5 µg/mL

Structure (SMILES): CN(C)C1CCN(c2ccc3c(c2)CCCc2c-3[nH]c(=O)c(C(=O)O)c2O)CC1.Cl [Cpd 116, 9-(4-(dimethylamino)piperidin-1-yl)-4-hydroxy-2-oxo-2,5,6,7-tetrahydro-1H-benzo[6,7]cyclohepta[1,2-b]pyridine-3-carboxylic acid hydrochloride]
- MIC [1]: 12.5 to 150 µg/mL
- MIC [2, 4]: 3.5 to 12.5 µg/mL
- MIC [3]: 12.5 to 150 µg/mL

Structure (SMILES): O=C(O)c1cc2c([nH]c1=O)-c1ccc(N3CCCC3)cc1OCC2 [Cpd 81, 2-oxo-9-(pyrrolidin-1-yl)-1,2,5,6-tetrahydrobenzo[2,3]oxepino[4,5-b]pyridine-3-carboxylic acid]
- MIC [1]: 12.5 to 150 µg/mL (≈ 38.3 to 460 µM)
- MIC [2, 4]: < 1 µg/mL
- MIC [3]: 12.5 to 150 µg/mL (≈ 38.3 to 460 µM)

Structure (SMILES): CC1COc2cc(N3CCC(N(C)C)C3)ccc2-c2[nH]c(=O)c(C(=O)O)c(O)c21.Cl (stereo not drawn) [Cpd 84, 9-(3-(dimethylamino)pyrrolidin-1-yl)-4-hydroxy-5-methyl-2-oxo-1,2,5,6-tetrahydrobenzo[2,3]oxepino[4,5-b]pyridine-3-carboxylic acid hydrochloride]
- MIC [1]: 12.5 to 150 µg/mL
- MIC [2, 4]: 1 to 3.5 µg/mL
- MIC [3]: 12.5 to 150 µg/mL

Structure (SMILES): Cn1c2c(cc(C(=O)O)c1=O)CCCc1cc3c(ccn3C)cc1-2 [Cpd 133, 1,9-dimethyl-2-oxo-1,2,5,6,7,9-hexahydropyrido[3′,2′:6,7]cyclohepta[1,2-f]indole-3-carboxylic acid]
- MIC [1]: 3.5 to 12.5 µg/mL (≈ 10.9 to 38.8 µM)
- MIC [2, 4]: < 1 µg/mL
- MIC [3]: 12.5 to 150 µg/mL (≈ 38.8 to 465 µM)

Structure (SMILES): CN(C)C1CCCN(c2ccc3c(c2)CCCc2c-3[nH]c(=O)c(C(=O)O)c2O)C1.Cl (stereo not drawn) [Cpd 117, 9-(3-(dimethylamino)piperidin-1-yl)-4-hydroxy-2-oxo-2,5,6,7-tetrahydro-1H-benzo[6,7]cyclohepta[1,2-b]pyridine-3-carboxylic acid hydrochloride]
- MIC [1]: 12.5 to 150 µg/mL
- MIC [2, 4]: 3.5 to 12.5 µg/mL
- MIC [3]: 12.5 to 150 µg/mL

Structure (SMILES): Cn1c2c(cc(C(=O)O)c1=O)CC=Cc1cc3c(ccn3C)cc1-2 [Cpd 130, 1,9-dimethyl-2-oxo-1,2,5,9-tetrahydropyrido[3′,2′:6,7]cyclohepta[1,2-f]indole-3-carboxylic acid]
- MIC [1]: 3.5 to 12.5 µg/mL (≈ 10.9 to 39 µM)
- MIC [2, 4]: < 1 µg/mL
- MIC [3]: 12.5 to 150 µg/mL (≈ 39 to 468 µM)

Structure (SMILES): CC1Oc2ccccc2-c2[nH]c(=O)c(C(=O)O)cc21 (stereo not drawn) [Cpd 73, 5-methyl-2-oxo-2,5-dihydro-1H-chromeno[4,3-b]pyridine-3-carboxylic acid]
- MIC [1]: 12.5 to 150 µg/mL (≈ 48.6 to 583 µM)
- MIC [2, 4]: 12.5 to 150 µg/mL (≈ 48.6 to 583 µM)
- MIC [3]: 12.5 to 150 µg/mL (≈ 48.6 to 583 µM)

Structure (SMILES): CC(C)CNCc1cc2cc3c(cc2n1C)CCCc1c-3[nH]c(=O)c(C(=O)O)c1O.Cl [Cpd 154, 4-hydroxy-10-((isobutylamino)methyl)-9-methyl-2-oxo-1,2,5,6,7,9-hexahydropyrido[3′,2′:6,7]cyclohepta[1,2-f]indole-3-carboxylic acid hydrochloride]
- MIC [1]: < 1 µg/mL
- MIC [2, 4]: < 1 µg/mL
- MIC [3]: 3.5 to 12.5 µg/mL

Structure (SMILES): CC(=O)NC1CCN(Cc2cc3cc4c(cc3n2C)CCCc2c-4[nH]c(=O)c(C(=O)O)c2O)C1.Cl (stereo not drawn) [Cpd 159, 10-((3-acetamidopyrrolidin-1-yl)methyl)-4-hydroxy-9-methyl-2-oxo-1,2,5,6,7,9-hexahydropyrido[3′,2′:6,7]cyclohepta[1,2-f]indole-3-carboxylic acid hydrochloride]
- MIC [1]: 3.5 to 12.5 µg/mL
- MIC [2, 4]: < 1 µg/mL
- MIC [3]: 12.5 to 150 µg/mL

Structure (SMILES): CC1COc2cc(N3C[C@@H]4[C@@H](N)[C@@H]4C3)ccc2-c2[nH]c(=O)c(C(=O)O)c(O)c21 (stereo partly drawn) [Cpd 86, 9-((cis,cis)-6-amino-3-azabicyclo[3.1.0]hexan-3-yl)-4-hydroxy-5-methyl-2-oxo-1,2,5,6-tetrahydrobenzo[2,3]oxepino[4,5-b]pyridine-3-carboxylic acid hydrochloride]
- MIC [1]: 3.5 to 12.5 µg/mL
- MIC [2, 4]: < 1 µg/mL
- MIC [3]: 12.5 to 150 µg/mL

Structure (SMILES): Cl.Cn1c(CNC2CCC2)cc2cc3c(cc21)CCCc1c-3[nH]c(=O)c(C(=O)O)c1O [Cpd 23, 10-((cyclobutylamino)methyl)-4-hydroxy-9-methyl-2-oxo-1,2,5,6,7,9-hexahydropyrido[3′,2′:6,7]cyclohepta[1,2-f]indole-3-carboxylic acid hydrochloride]
- MIC [1]: < 1 µg/mL
- MIC [2, 4]: < 1 µg/mL
- MIC [3]: 3.5 to 12.5 µg/mL
